Source: publication PMC6508677, “Identification of druggable small molecule antagonists of the Plasmodium falciparum hexose transporter PfHT and assessment of ligand access to the glucose permeation pathway via FLAG-mediated protein engineering” (PLoS ONE, 2019)
“And” between values parts separate entries of the source, which are not always exact repeats. Equal values may be shown once. Read-outs that look alike come from different tables or passages of the source.

Legend:
[1] = target: T1, FTPfHT (Plasmodium falciparum, UniProt Q7KWJ5); test: 2-DG uptake by HEK293 cells overexpressing FLAG-tagged PfHT (FTPfHT); format: cell-based; parameters: the 38–40 kDa band represents full length PfHT; expressed in transfected cells; host or cells: HEK293-FLIP (HEK293)
T1 sequence (Q7KWJ5 1-504): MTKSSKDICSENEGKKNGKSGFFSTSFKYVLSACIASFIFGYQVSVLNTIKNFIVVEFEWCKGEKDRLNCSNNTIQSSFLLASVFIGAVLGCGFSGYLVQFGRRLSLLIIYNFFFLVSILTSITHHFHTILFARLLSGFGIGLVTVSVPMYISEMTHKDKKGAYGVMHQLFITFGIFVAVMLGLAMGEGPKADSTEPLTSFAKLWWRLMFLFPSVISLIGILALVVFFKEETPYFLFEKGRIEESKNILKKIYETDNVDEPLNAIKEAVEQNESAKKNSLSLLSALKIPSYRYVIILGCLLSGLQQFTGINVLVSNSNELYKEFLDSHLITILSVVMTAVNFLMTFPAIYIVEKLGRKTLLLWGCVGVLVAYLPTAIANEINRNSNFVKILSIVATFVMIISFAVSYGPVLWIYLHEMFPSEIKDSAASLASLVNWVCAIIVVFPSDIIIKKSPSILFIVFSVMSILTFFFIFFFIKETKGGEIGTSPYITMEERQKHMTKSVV
Description: (§1) Generation of HEK293 cells overexpressing PfHT and human GLUTs 1–4 were described elsewhere. Briefly, HEK293 cells were transfected with pcDNA3.1 FLII12Pglu-7006 (Addgene), containing the fluorescence resonance energy transfer (FRET) glucose sensor (HEK293-FLIP) and PfHT, human GLUT1 (hGLUT1), hGLUT2, hGLUT3, hGLUT4, hGLUT5 or hGLUT8 using Optifect (Life Technologies) according to manufacturer’s specifications. To increase retention of GLUT8 at the plasma membrane, the dileucine sorting signal E^7E^8XXXLL was modified to R^7R^8XXXLL as described in [17]. Stable transfectants were selected for G418 and hygromycin resistance to select for FRET sensor and hexose transporter, respectively. HEK293-FLIP cells were also used to generate cells stably transfected with FLAG-tagged PfHT (FTPfHT). FLAG tag ([…]) followed by a triple glycine linker and a tobacco etch virus (TEV) protease site (ENLYFQS) followed by a triple glycine linker was added to the N-terminus of PfHT via PCR [18] using Phusion Hot Start II High-Fidelity DNA Polymerase (Fisher Scientific). Single clones were selected by comparing their abilities to transport glucose as assayed via FRET and radiolabeled hexose uptake. In all cell lines, except for HEK293 cells overexpressing hGLUT1 and hGLUT5, native hGLUT1 was knocked down using shRNA as described elsewhere. Transcript levels of the individual GLUTs expressed in each cell line are as described in [13, 15] and in S1 Fig.
(§2) Glucose uptake by P. falciparum was performed essentially as described. P. falciparum strain 3D7 was cultured in 100 mm tissue culture dishes (Techno Plastic Products) in a 2% suspension of human erythrocytes and RPMI 1640 medium until reaching > 7.5% parasitemia. Cells were pelleted via centrifugation and resuspended in RPMI 1640 medium. To determine the uptake of radiolabeled glucose into the parasite, parasites were isolated from infected erythrocytes by permeablization with saponin (0.05 w/v), followed by centrifugation, aspiration of supernatant and washing of the pellet 3X with saline solution (135 mM NaCl, 2 mM KCl, 25 mM HEPES, 0.2 mM glucose and 1 mM MgCl2; pH 7.1) to remove cellular debris. WU-1 or DMSO vehicle were added to 100 μl parasites (resuspended in saline) 5 min prior to the addition of 100 μl [^14C]2-DOG (0.2- μCi/ml final concentration). 2-DG uptake was stopped after 2 min by layering the entire reaction over 300 μl of an oil mixture (5:4 mix of dibutyl phthalate / dinonyl phthalate) in Eppendorf tubes and centrifuged at 15,850 × g for 2 mins. The ratio of the estimated intracellular concentration of radiolabel relative to the extracellular concentration were calculated as described. Uptake of radiolabeled hexose into HEK293 cells was measured in glucose-free HBSS as described previously. Briefly, cells were plated at 400,000 cells/well overnight at 37°C in 24-well plates pre-treated with PEI. After 30-min incubation at 37°C in glucose-free HBSS in the presence of vehicle or increasing concentrations of compound, 2-DG uptake was measured in glucose-free HBSS for 4 min at 37°C. Cultures were washed in ice-cold 1X PBS and lysed in 0.1% Triton X-100 in 1X PBS. Radiolabeled hexose uptake was determined by liquid scintillation counting (Ultima Gold, Thermo Fisher) and normalized to total protein per well. Uptake data are plotted as percent uptake relative to vehicle-treated cells. Kinetic analyses were performed using the indicated concentrations of substrate and WU-1, with quenching of uptake after 1 min incubation. Incubation times had been previously determined as being in the linear range of time-dependent radiolabeled hexose uptake (2 min for 2-DG uptake into freed parasites; 2 and 4 min for D-Frc and 2-DG uptake HEK cell lines, respectively). Data were fit by least squares nonlinear regression analysis using GraphPad Prism 6.0 software.

[2] = target: T2, PfHT (Plasmodium falciparum, UniProt Q7KWJ5); test: 2-DG uptake by HEK293 cells overexpressing PfHT; format: cell-based; parameters: expressed in transfected cells; host or cells: HEK293 (HEK293-FLIP, native hGLUT1 knocked down by shRNA)
T2 sequence (Q7KWJ5 1-504): T1 sequence (Q7KWJ5 1-504)
Description: as §1, §2

For Cc1ccc(S(=O)(=O)CCNC(=O)c2c(-c3c(Cl)cccc3Cl)noc2C)cc1 [WU-1, 3-(2,6-dichlorophenyl)-5-methyl-N-[2-(4-methylbenzenesulfonyl)ethyl]-1,2-oxazole-4-carboxamide], the IC50 ([1]; FTPfHT, 2-DG Uptake, average of Expt 1-3, read-out: AVE IC50) was 19.5 µM, the IC50 ([1]; FTPfHT, 2-DG Uptake, single experiments Expt 1-3, read-out: IC50) was 19.2 µM and 18.9 µM and 20.5 µM and the remaining activity at 0.001 µM ([1]; HEK293, 4 min, FTPfHT, concentration 0.001 µM, Expt 1-3, read-out: 2-DG Uptake AVE) was 100%. For the same compound, the remaining activity at 0.313 µM ([1]; HEK293, 4 min, FTPfHT, concentration 0.313 µM, read-out: 2-DG Uptake AVE) was 95.9%, the remaining activity at 0.625 µM ([1]; HEK293, 4 min, FTPfHT, concentration 0.625 µM, read-out: 2-DG Uptake AVE) was 92.1% and the remaining activity at 1.25 µM ([1]; HEK293, 4 min, FTPfHT, concentration 1.250 µM, read-out: 2-DG Uptake AVE) was 81.9%. It also gave a remaining activity at 2.5 µM ([1]; HEK293, 4 min, FTPfHT, concentration 2.500 µM, read-out: 2-DG Uptake AVE) of 84.9%, a remaining activity at 5 µM ([1]; HEK293, 4 min, FTPfHT, concentration 5.0 µM, read-out: 2-DG Uptake AVE) of 80.6% and a remaining activity at 10 µM ([1]; HEK293, 4 min, FTPfHT, concentration 10.0 µM, read-out: 2-DG Uptake AVE) of 64.8%. For the same compound, the remaining activity at 20 µM ([1]; HEK293, 4 min, FTPfHT, concentration 20 µM, read-out: 2-DG Uptake AVE) was 52.4%, the remaining activity at 40 µM ([1]; HEK293, 4 min, FTPfHT, concentration 40 µM, read-out: 2-DG Uptake AVE) was 41.1% and the remaining activity at 80 µM ([1]; HEK293, 4 min, FTPfHT, concentration 80 µM, read-out: 2-DG Uptake AVE) was 29.3%. It also gave a remaining activity at 160 µM ([1]; HEK293, 4 min, FTPfHT, concentration 160 µM, read-out: 2-DG Uptake AVE) of 19.9%, a remaining activity at 225 µM ([1]; HEK293, 4 min, FTPfHT, concentration 225 µM, read-out: 2-DG Uptake AVE) of 17.1% and an IC50 ([1]; IC50 for inhibition of 2-DG uptake, HEK293 cells overexpressing FTPfHT) of 19.5 ± 0.5 µM. The “Maximum Inhibition (%)” value ([2]; 2-DG uptake, PfHT cell line) was 93.2%, the remaining activity at 0.001 µM ([2]; HEK293, 4 min, read-out: 2-DG Uptake AVE, PfHT, concentration 0.001 µM, Expt 1-3) was 100% and the remaining activity at 0.09375 µM ([2]; HEK293, 4 min, read-out: 2-DG Uptake AVE, PfHT, concentration 0.09375 µM) was 91.6%. The remaining activity at 0.1875 µM ([2]; HEK293, 4 min, read-out: 2-DG Uptake AVE, PfHT, concentration 0.1875 µM) was 88.9%, the remaining activity at 0.3125 µM ([2]; HEK293, 4 min, read-out: 2-DG Uptake AVE, PfHT, concentration 0.3125 µM) was 90.1% and the remaining activity at 0.375 µM ([2]; HEK293, 4 min, read-out: 2-DG Uptake AVE, PfHT, concentration 0.375 µM) was 85.8%. It also gave a remaining activity at 0.625 µM ([2]; HEK293, 4 min, read-out: 2-DG Uptake AVE, PfHT, concentration 0.625 µM) of 85.2%, a remaining activity at 0.75 µM ([2]; HEK293, 4 min, read-out: 2-DG Uptake AVE, PfHT, concentration 0.75 µM) of 76.1% and a remaining activity at 1.25 µM ([2]; HEK293, 4 min, read-out: 2-DG Uptake AVE, PfHT, concentration 1.25 µM) of 64.5%. For the same compound, the remaining activity at 2.5 µM ([2]; HEK293, 4 min, read-out: 2-DG Uptake AVE, PfHT, concentration 2.5 µM) was 70.2%, the remaining activity at 5 µM ([2]; HEK293, 4 min, read-out: 2-DG Uptake AVE, PfHT, concentration 5 µM) was 49.8% and the remaining activity at 10 µM ([2]; HEK293, 4 min, read-out: 2-DG Uptake AVE, PfHT, concentration 10 µM) was 34.7%. It also gave a remaining activity at 20 µM ([2]; HEK293, 4 min, read-out: 2-DG Uptake AVE, PfHT, concentration 20 µM) of 21.1%, a remaining activity at 40 µM ([2]; HEK293, 4 min, read-out: 2-DG Uptake AVE, PfHT, concentration 40 µM) of 20.4% and a remaining activity at 80 µM ([2]; HEK293, 4 min, read-out: 2-DG Uptake AVE, PfHT, concentration 80 µM) of 8.82%. It also gave a remaining activity at 160 µM ([2]; HEK293, 4 min, read-out: 2-DG Uptake AVE, PfHT, concentration 160 µM) of 5.63%, a remaining activity at 225 µM ([2]; HEK293, 4 min, read-out: 2-DG Uptake AVE, PfHT, concentration 225 µM) of 5.69% and a remaining activity at 0.001 µM ([2]; HEK293, 4 min, read-out: 2-DG uptake (percent uptake relative to vehicle), AVE, PfHT, 0.001 µM compound) of 100%. The remaining activity at 0.09375 µM ([2]; HEK293, 4 min, read-out: 2-DG uptake (percent uptake relative to vehicle), AVE, PfHT, 0.09375 µM compound) was 91.6%, the remaining activity at 0.1875 µM ([2]; HEK293, 4 min, read-out: 2-DG uptake (percent uptake relative to vehicle), AVE, PfHT, 0.1875 µM compound) was 88.9% and the remaining activity at 0.3125 µM ([2]; HEK293, 4 min, read-out: 2-DG uptake (percent uptake relative to vehicle), AVE, PfHT, 0.3125 µM compound (0.313 in Fig 1 sheet for WU-1)) was 90.2%. It also gave a remaining activity at 0.375 µM ([2]; HEK293, 4 min, read-out: 2-DG uptake (percent uptake relative to vehicle), AVE, PfHT, 0.375 µM compound) of 85.8%, a remaining activity at 0.625 µM ([2]; HEK293, 4 min, read-out: 2-DG uptake (percent uptake relative to vehicle), AVE, PfHT, 0.625 µM compound) of 85.3% and a remaining activity at 0.75 µM ([2]; HEK293, 4 min, read-out: 2-DG uptake (percent uptake relative to vehicle), AVE, PfHT, 0.75 µM compound) of 76.1%. For the same compound, the remaining activity at 1.25 µM ([2]; HEK293, 4 min, read-out: 2-DG uptake (percent uptake relative to vehicle), AVE, PfHT, 1.25 µM compound) was 80.1%, the remaining activity at 2.5 µM ([2]; HEK293, 4 min, read-out: 2-DG uptake (percent uptake relative to vehicle), AVE, PfHT, 2.5 µM compound) was 68.2% and the remaining activity at 5 µM ([2]; HEK293, 4 min, read-out: 2-DG uptake (percent uptake relative to vehicle), AVE, PfHT, 5 µM compound) was 53.2%. The remaining activity at 10 µM ([2]; HEK293, 4 min, read-out: 2-DG uptake (percent uptake relative to vehicle), AVE, PfHT, 10 µM compound) was 42.3%, the remaining activity at 20 µM ([2]; HEK293, 4 min, read-out: 2-DG uptake (percent uptake relative to vehicle), AVE, PfHT, 20 µM compound) was 30.2% and the remaining activity at 40 µM ([2]; HEK293, 4 min, read-out: 2-DG uptake (percent uptake relative to vehicle), AVE, PfHT, 40 µM compound) was 18.7%. The remaining activity at 80 µM ([2]; HEK293, 4 min, read-out: 2-DG uptake (percent uptake relative to vehicle), AVE, PfHT, 80 µM compound) was 9.91%, the remaining activity at 160 µM ([2]; HEK293, 4 min, read-out: 2-DG uptake (percent uptake relative to vehicle), AVE, PfHT, 160 µM compound) was 5.69% and the remaining activity at 225 µM ([2]; HEK293, 4 min, read-out: 2-DG uptake (percent uptake relative to vehicle), AVE, PfHT, 225 µM compound) was 6.88%. For the same compound, the inhibition at 5 µM ([2]; HEK293, 4 min, read-out: % Inhibition of 2-DG uptake vs vehicle) was 50.2%, the IC50 ([2]; IC50 (µM), PfHT, 2-DG Uptake, single experiments Expt 1-3) was 4.6 µM and 6.6 µM and 6.34 µM and the IC50 ([2]; IC50 for inhibition of 2-DG uptake, HEK293 cells overexpressing PfHT, mean/reported value) was 5.8 µM and 5.85 µM. For the same compound, the IC50 ([2]; IC50 for inhibition of 2-DG uptake, individual experiments, HEK293 PfHT, Expt 1-3) was 4.6 µM and 6.6 µM and 6.34 µM, the “2-DG uptake (percent uptake relative to vehicle), AVE” value ([2]; PfHT, 0.001 µM compound) was 100.00 and the “2-DG Uptake AVE” value ([2]; PfHT, concentration 0.001 µM, Expt 1-3) was 100.00. For the same compound, the “Selectivity Index, 2-DG, PfHT line itself” value ([2]; reference value) was 1.0.
